pIC50: −log10 of the molar value.
Tests used:
[1] = molecular target: T1, Prolyl endopeptidase (Homo sapiens) (UniProt P48147); test: Effect on the activity of prolyl endopeptidase (PEP) is evaluated at 1 mM.
T1 sequence (whole entry): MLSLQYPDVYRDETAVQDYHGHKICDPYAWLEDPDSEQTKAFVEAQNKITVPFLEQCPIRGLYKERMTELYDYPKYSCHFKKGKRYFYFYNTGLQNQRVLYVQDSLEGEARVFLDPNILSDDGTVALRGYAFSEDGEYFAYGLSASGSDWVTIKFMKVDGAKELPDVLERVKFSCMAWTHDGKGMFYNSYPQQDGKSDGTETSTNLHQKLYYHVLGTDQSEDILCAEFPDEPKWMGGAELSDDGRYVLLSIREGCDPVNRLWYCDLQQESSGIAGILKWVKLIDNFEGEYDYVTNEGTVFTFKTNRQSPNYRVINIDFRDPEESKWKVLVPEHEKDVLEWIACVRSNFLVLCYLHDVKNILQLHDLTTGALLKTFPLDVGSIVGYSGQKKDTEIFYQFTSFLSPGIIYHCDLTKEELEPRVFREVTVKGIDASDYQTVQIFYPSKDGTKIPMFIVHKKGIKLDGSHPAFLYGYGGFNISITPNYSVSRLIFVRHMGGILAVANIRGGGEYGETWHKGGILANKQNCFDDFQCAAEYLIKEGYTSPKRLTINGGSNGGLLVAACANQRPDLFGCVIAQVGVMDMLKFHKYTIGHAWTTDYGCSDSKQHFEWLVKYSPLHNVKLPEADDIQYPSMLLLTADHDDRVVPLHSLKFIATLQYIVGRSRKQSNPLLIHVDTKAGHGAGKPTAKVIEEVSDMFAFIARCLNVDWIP

[2] = molecular target: T1, Prolyl endopeptidase (Homo sapiens); test: Effect on the activity of prolyl endopeptidase (PEP) is evaluated at the IC50 concentration for DPPIV.
[3] = Functional stability in plasma was estimated by fitting the inverse of apparent IC50 values verses time with a single-exponential decay; assay type: ADME, cell-free
Dipeptidyl peptidase 4 = Dipeptidyl peptidase 4 (Homo sapiens, UniProt P27487)
Description: In vitro inhibition of human Dipeptidylpeptidase IV.

Homo sapiens [4] = organism: Homo sapiens; test: Effect on the activity of elastase is evaluated at a concentration of 1 mM.; assay type: functional
[5] = Effect on the activity of membrane alanyl aminopeptidase (MAAP) is evaluated at the IC50 concentration for DPPIV.
[6] = molecular target: Dipeptidyl peptidase 4 (Mus musculus) (UniProt P28843)
Description: Effect on the activity of Dipeptidylpeptidase II (DPP II) is evaluated at a concentration of 1 mM.

[7] = molecular target: Dipeptidyl peptidase 4 (Mus musculus) (UniProt P28843); remark: listed apart in the source
Description: Effect on the activity of Dipeptidylpeptidase II (DPP II) is evaluated at the IC50 concentration for DPPIV.

Homo sapiens [8] = organism: Homo sapiens; test: cells
[9] = molecular target: Aminopeptidase N (Homo sapiens) (UniProt P15144); test: Effect on the activity of membrane alanyl aminopeptidase (MAAP) is evaluated at a concentration of 1 mM.
Homo sapiens [10] = organism: Homo sapiens; test: Effect on the activity of elastase was determined as IC50; assay type: functional

Chain of Dipeptidyl peptidase 4 (P27487 whole entry): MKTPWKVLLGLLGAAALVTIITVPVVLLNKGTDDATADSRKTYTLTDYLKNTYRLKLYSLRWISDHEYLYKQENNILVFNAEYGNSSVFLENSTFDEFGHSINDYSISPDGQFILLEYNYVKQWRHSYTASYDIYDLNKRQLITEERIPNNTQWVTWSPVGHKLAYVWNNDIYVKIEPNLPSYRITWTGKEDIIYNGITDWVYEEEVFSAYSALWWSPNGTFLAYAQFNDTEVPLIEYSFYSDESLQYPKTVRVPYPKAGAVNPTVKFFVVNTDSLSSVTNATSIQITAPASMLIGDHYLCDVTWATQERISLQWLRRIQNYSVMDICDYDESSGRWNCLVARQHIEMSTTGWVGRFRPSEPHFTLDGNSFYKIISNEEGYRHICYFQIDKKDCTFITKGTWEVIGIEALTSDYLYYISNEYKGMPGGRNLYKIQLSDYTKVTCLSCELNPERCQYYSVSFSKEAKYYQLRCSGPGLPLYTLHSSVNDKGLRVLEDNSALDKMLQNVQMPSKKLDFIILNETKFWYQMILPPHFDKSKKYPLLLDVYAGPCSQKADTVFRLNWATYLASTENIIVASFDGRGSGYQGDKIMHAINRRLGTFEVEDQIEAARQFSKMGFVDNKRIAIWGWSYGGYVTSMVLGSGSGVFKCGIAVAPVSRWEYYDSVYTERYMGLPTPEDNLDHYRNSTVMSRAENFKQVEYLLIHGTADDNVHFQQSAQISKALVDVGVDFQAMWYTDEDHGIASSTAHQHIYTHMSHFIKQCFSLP
Chain of Dipeptidyl peptidase 4 (Mus musculus) (P28843 whole entry, looked up): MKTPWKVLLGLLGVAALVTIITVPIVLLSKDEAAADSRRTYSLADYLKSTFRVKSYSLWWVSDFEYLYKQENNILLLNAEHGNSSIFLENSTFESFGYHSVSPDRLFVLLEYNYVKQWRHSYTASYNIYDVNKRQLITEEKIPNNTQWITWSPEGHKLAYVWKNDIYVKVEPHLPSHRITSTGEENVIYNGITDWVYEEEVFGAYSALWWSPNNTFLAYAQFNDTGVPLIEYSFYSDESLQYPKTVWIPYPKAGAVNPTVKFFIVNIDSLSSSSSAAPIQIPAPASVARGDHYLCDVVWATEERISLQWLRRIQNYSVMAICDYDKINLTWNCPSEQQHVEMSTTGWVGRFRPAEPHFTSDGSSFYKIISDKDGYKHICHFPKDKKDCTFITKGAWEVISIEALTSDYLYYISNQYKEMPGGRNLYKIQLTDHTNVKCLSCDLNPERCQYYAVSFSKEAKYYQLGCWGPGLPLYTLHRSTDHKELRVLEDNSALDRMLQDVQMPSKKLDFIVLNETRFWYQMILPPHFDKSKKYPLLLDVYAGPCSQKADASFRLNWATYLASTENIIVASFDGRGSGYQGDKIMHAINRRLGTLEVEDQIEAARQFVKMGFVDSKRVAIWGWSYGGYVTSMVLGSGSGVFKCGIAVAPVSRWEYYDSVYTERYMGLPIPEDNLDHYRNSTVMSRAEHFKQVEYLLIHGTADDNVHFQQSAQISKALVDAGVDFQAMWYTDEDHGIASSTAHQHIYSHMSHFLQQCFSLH
Chain of Aminopeptidase N (Homo sapiens) (P15144 whole entry): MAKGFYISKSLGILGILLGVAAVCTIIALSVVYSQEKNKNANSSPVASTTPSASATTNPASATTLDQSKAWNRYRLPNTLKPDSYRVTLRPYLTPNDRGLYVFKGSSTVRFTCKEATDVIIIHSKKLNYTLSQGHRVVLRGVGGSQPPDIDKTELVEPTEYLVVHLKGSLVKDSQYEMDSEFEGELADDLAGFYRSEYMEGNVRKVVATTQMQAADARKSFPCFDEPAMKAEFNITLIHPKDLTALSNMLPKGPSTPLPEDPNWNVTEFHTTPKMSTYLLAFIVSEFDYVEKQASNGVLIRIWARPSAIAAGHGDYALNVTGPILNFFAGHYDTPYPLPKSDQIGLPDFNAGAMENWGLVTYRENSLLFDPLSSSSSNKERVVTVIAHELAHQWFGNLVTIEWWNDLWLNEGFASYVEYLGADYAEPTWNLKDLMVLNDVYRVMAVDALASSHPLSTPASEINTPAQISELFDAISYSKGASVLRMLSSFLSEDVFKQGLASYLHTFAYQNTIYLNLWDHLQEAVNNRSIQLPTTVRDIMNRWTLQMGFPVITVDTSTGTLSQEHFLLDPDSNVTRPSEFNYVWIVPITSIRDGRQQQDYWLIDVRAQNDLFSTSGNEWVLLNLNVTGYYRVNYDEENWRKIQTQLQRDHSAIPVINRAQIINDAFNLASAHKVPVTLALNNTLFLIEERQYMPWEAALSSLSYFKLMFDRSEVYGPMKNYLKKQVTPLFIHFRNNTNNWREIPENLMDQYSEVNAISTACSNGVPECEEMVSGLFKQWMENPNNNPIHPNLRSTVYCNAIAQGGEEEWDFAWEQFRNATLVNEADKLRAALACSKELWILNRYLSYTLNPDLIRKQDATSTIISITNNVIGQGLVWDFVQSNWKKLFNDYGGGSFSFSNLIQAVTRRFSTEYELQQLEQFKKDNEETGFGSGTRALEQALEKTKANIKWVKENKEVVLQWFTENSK

**Q.** Which results are given for COC(=O)c1ccc(OP(=O)(Oc2ccc(C(=O)OC)cc2)C2CCCN2C(=O)C2CCCN2)cc1 (stereo not given)?
**A.** Specificity [1]: 4; Specificity [2]: 73

**Q.** Which results are given for C[C@H](N)C(=O)Nc1ccc(OP(=O)(Oc2ccc(NC(=O)[C@@H](C)N)cc2)C2CCCN2C(=O)C2CCCN2)cc1.Cl (stereo not given in full)?
**A.** half-life [3]: 8 min; Specificity [1]: 47; Specificity [2]: 88; pIC50 (Dipeptidyl peptidase 4): 6.22

**Q.** For CC(=O)Nc1cccc(OP(=O)(Oc2cccc(NC(C)=O)c2)C2CCCN2C(=O)C2CCCN2)c1.Cl (stereo not given), which half-life [3] is on record?
**A.** 220 min

**Q.** For COC(=O)C(Cc1ccc(OP(=O)(Oc2ccc(CC(NC(C)=O)C(=O)OC)cc2)C2CCCN2C(=O)C2CCCN2)cc1)NC(C)=O (stereo not given), which Specificity [1] is on record?
**A.** 35

**Q.** And the Specificity [2]?
**A.** 102

**Q.** What does the source list for Cl.O=C([C@@H]1CCCN1)N1CCCC1P1(=O)Oc2ccccc2-c2ccccc2O1 (stereo not given in full)?
**A.** half-life [3]: 6 min; pIC50 (Dipeptidyl peptidase 4): 4.51

**Q.** Which half-life [3] does the source give for CCCNC(=O)c1ccc(OP(=O)(Oc2ccc(C(=O)NCCC)cc2)C2CCCN2C(=O)C2CCCN2)cc1.Cl (stereo not given) here?
**A.** 12 min

**Q.** And the Specificity [1]?
**A.** 5

**Q.** What about the Specificity [2] of the same compound?
**A.** 97

**Q.** Which results are given for Cl.O=C([C@H]1CCCN1)N1CCCC1P(=O)(Oc1ccccc1)Oc1ccccc1 (stereo not given in full)?
**A.** half-life [3]: 300 min; Specificity (Homo sapiens [4]): 82; Specificity [5]: 100; Specificity [1]: 71; Specificity [2]: 107; Specificity [6]: 73; Specificity [7]: 102; pIC50 (Homo sapiens [8]): 4.00

**Q.** For CS(=O)(=O)Nc1ccc(OP(=O)(Oc2ccc(NS(C)(=O)=O)cc2)C2CCCN2C(=O)C2CCCN2)cc1.Cl (stereo not given), which half-life [3] is on record?
**A.** 150 min

**Q.** And the Specificity [1]?
**A.** 4

**Q.** What about the Specificity [2] of the same compound?
**A.** 73

**Q.** For Cl.O=C(C1CCCN1)N1CCCC1P(=O)(Oc1ccc(O)cc1)Oc1ccc(O)cc1 (stereo not given), which half-life [3] is on record?
**A.** > 200 min

**Q.** And the pIC50 (Dipeptidyl peptidase 4)?
**A.** 3.72

**Q.** With Cl.O=C(C1CCCN1)N1CCCC1P(=O)(Oc1ccc(NN2CCCC2)cc1)Oc1ccc(NN2CCCC2)cc1 (stereo not given) as the compound, how does the pIC50 (Dipeptidyl peptidase 4) read?
**A.** 5.30

**Q.** What does the source list for COc1ccc(OP(=O)(Oc2ccc(OC)cc2)C2CCCN2C(=O)C2CCCN2)cc1.Cl (stereo not given)?
**A.** half-life [3]: 470 min; pIC50 (Dipeptidyl peptidase 4): 4.66

**Q.** Which half-life [3] does the source give for COC(=O)CCNC(=O)c1ccc(OP(=O)(Oc2ccc(C(=O)NCCC(=O)OC)cc2)C2CCCN2C(=O)C2CCCN2)cc1.Cl (stereo not given) here?
**A.** 26 min

**Q.** What about the Specificity [1] of the same compound?
**A.** 0

**Q.** And the Specificity [2]?
**A.** 83

**Q.** With Cl.NC(=O)Nc1cccc(OP(=O)(OC2=CC=CC(NC(N)=O)C2)C2CCCN2C(=O)C2CCCN2)c1 (stereo not given) as the compound, how does the pIC50 (Dipeptidyl peptidase 4) read?
**A.** 5.64

**Q.** With O=C(C1CCCN1)N1CCCC1P(=O)(OCC(F)(F)F)OCC(F)(F)F (stereo not given) as the compound, how does the pIC50 (Dipeptidyl peptidase 4) read?
**A.** 2.04

**Q.** With CC(=O)Nc1ccc(OP(=O)(Oc2ccc(NC(C)=O)cc2)C2CCCN2C(=O)C2CCCN2)cc1.Cl (stereo not given) as the compound, how does the Specificity [9] read?
**A.** 96

**Q.** What about the Specificity (Homo sapiens [4]) of the same compound?
**A.** 105

**Q.** What about the Specificity [5] of the same compound?
**A.** 99

**Q.** And the Specificity [1]?
**A.** 60

**Q.** What about the Specificity [2] of the same compound?
**A.** 96

**Q.** And the Specificity [6]?
**A.** 83

**Q.** What about the Specificity [7] of the same compound?
**A.** 100

**Q.** With CCOC(=O)CNC(=O)c1ccc(OP(=O)(Oc2ccc(C(=O)NCC(=O)OCC)cc2)C2CCCN2C(=O)C2CCCN2)cc1.Cl (stereo not given) as the compound, how does the half-life [3] read?
**A.** 35 min

**Q.** And the Specificity [9]?
**A.** 94

**Q.** And the Specificity (Homo sapiens [4])?
**A.** 6

**Q.** What about the pIC50 (Homo sapiens [10]) of the same compound?
**A.** 3.99

**Q.** And the Specificity [1]?
**A.** 1

**Q.** And the Specificity [2]?
**A.** 85

**Q.** And the Specificity [6]?
**A.** 66

**Q.** And the Specificity [7]?
**A.** 78

**Q.** What does the source list for Cl.O=C(CNC(=O)c1ccccc1)Nc1ccc(OP(=O)(Oc2ccc(NC(=O)CNC(=O)c3ccccc3)cc2)C2CCCN2C(=O)C2CCCN2)cc1 (stereo not given)?
**A.** half-life [3]: 93 min; Specificity [1]: 32; Specificity [2]: 92

**Q.** With O=C(C1CCCN1)N1CCCC1P(=O)(OCC(Cl)(Cl)Cl)OCC(Cl)(Cl)Cl (stereo not given) as the compound, how does the pIC50 (Dipeptidyl peptidase 4) read?
**A.** 2.74

**Q.** For Cl.NCC(=O)Nc1ccc(OP(=O)(Oc2ccc(NC(=O)CN)cc2)C2CCCN2C(=O)C2CCCN2)cc1 (stereo not given), which half-life [3] is on record?
**A.** 28 min

— ChEMBL document CHEMBL1132608, “Structure-activity relationship of diaryl phosphonate esters as potent irreversible dipeptidyl peptidase IV inhibitors” (J Med Chem, 1999)
